# In patent publication US20110318422A1, “TARGETED ACTIVE AGENT DELIVERY SYSTEM BASED ON CALCIUM PHOSPHATE NANOPARTICLES” (priority 2007, published 2011):
# Values joined by “and” are separate entries in the source; they are usually repeats but may differ in a detail not shown here. Equal entries are not always repeated.
# Tests used:
# [1] = system: A2780cis human ovarian carcinoma cell line; test: In vitro cytotoxicity, CellTiter96 AQueous One proliferation assay (Example 1); format: cell-based; settings: A2780cis cells; sample added to cells; Example 1 particles
# Procedure: In one set of in vitro cytotoxicity activity studies, the cisplatin-resistant A2780cis human ovarian carcinoma cell line was used. A2780cis human ovarian carcinoma cell line (Sigma, 93112517) was cultured according to supplier's descriptions. IC50 values (50% inhibitory concentration) were determined with the CellTiter96® AQueous One (Promega) colorimetric proliferation assay. The CellTiter96® AQueous One (Promega) colorimetric proliferation assay was used to determine the IC50 value (50% inhibitory concentration) evaluated from 12 two-fold dilutions of: (a) cisplatin (200 μg cisplatin /mL) in 0.9% saline (free active agent), (b) 1.5 mg of conjugates in 1.75 ml PBS, (c) 1.5 mg of hydroxyapatite in 1.75 ml of cisplatin solution. Control wells containing the hydroxyapatite only were used since the hydroxyapatite interferes with the CellTiter96 assay. Absorbance values from the hydroxyapatite only were subtracted from the conjugate data in order to determine the IC50 values. The cytotoxicity assay was conducted as follows: twenty-four hours after seeding 2000 A2780cis cells in […] of media on 96 well plates, […] PBS, or PBS with drug or conjugates was added to the wells.
# ME-180 tumors = test: Chemoradiotherapy of intradermal ME-180 tumors in mice; format: in vivo, athymic Ncr-nu/nu mice; settings: with single 8 Gy radiation; conjugate IT 10 mg/kg, cisplatin IP 7 mg/kg
# Procedure: Chemoradiotherapy of ME-180 Tumors with intratumoral calcium phosphate particle/cisplatin conjugate was performed. Primary tumors were initiated on the right flank in seventy athymic Ncr-nu/nu mice, 5-7 weeks old, by intradermal injections of 2.25×10^6 ME-180 cells, a human cervical cancer line. Six treatment groups were established for the study and included an untreated control, 7 mg/kg intraperitoneal (IP) cisplatin, and intratumoral (IT) calcium phosphate particle/cisplatin conjugate at a dose of 10 mg/kg. These three treatment groups were repeated in combination with a single dose of radiation at 8 Gy (Varian 2100 C), for a total of six treatment groups. Mice were entered into treatment groups once the intradermal ME-180 tumors were 100 mm^3±10% in size. A minimum of 5 mice was placed into each group. The conjugate was injected via an 18-gauge needle directly into the intradermal tumor. Tumor length and width were measured daily and the volume determined (Tumor volume=(width)^2×length×0.4). Mouse weight was also recorded daily as weight loss is an indicator of cisplatin side effects. Statistical analysis, a one-way ANOVA and Newman-Kuels Comparison Test, was applied to the tumor volumes on day 15 after treatment.
# [2] = system: A2780cis human ovarian carcinoma cell line; test: In vitro cytotoxicity, CellTiter96 AQueous One proliferation assay (Example 2); format: cell-based; settings: two days exposure, conjugate loading 112 μg/mg, listed as free active agent
# Procedure: For in vitro cytotoxicity activity studies, the cisplatin-resistant cell line was used: A2780cis human ovarian carcinoma cell line (Sigma, 93112517) and cultured according to supplier's descriptions. Briefly, cells were cultured in RPMI1640 medium, supplemented with 2 mM Glutamine and 10% Fetal Bovine Serum (FBS) in a humid atmosphere at 37° C. and 5% CO2. Cells were supplemented with 1 μm cisplatin to the culture media every 2-3 passages, post-attachment. […] Three days were necessary to achieve a cisplatin concentration high enough to obtain an IC50 value. […] To confirm that the particle conjugates were diluted evenly across the wells, measurements of the total Pt concentration in all the wells of the active agent master plate were made by AAS after dissolving the conjugate solutions in dilute HCl. […] Absorbance values were converted to IC50 values using the four parameter logistic equation: Y=(Amax-Amin)/1+(x/IC50)^n+Amin Eq. 2 where Y=observed absorbance • Amax=absorbance of control cells • Amin=absorbance of cells in presence of highest agent concentration • x=active agent concentration (μg/ml) • n=slope of curve Samples were analyzed for statistically significant differences using the Student's T-test (P<0.05).
# [3] = Lymph node accumulation after footpad injection (Pt by graphite furnace AAS); format: in vivo, BALB/c mice; settings: 20 μl footpad injection; nodes at 30 min, 1, 4, 7 days
# Procedure: Lymph node accumulation studies were conducted using nine BALB/c mice, 5-7 weeks old injected with 20 μl of calcium phosphate particle/cisplatin conjugate (40 mg/ml) in both rear footpads. Six control mice received 20 μl footpad injections of cisplatin solution only. Draining lymph nodes, as determined by lymphazurin injections (popliteal, inguinal, and lumbar) were collected at 30 min, 1 day, 4 day and 7 days and analyzed for Pt content by graphite furnace atomic absorption spectroscopy. Use of calcium phosphate particle/cisplatin conjugate leads to sustained elevated levels of cisplatin in the draining nodes.
compound,measurement,setting,value
N.N.[Cl][Pt][Cl] [cisplatin],IC50 (50% inhibitory concentration),[1],6.07 ± 0.226 µg/mL
same,tumors completely regressed,ME-180 tumors,⅙
same,"IC50, direct addition study",[2],6.297 ± 0.43 µg/mL and 6.3 µg/mL
same,duration of cisplatin levels in the draining popliteal node,[3],barely detected after one day
